In patent publication US20240382460A1, “Compositions and Methods for Preventing or Improving Premature Skin Aging” (NANJING NUTRABUILDING BIO-TECH CO., LTD., priority 2022, published 2024):

Experiments:
[1] = tested on: normal human dermal fibroblasts (NHDF); assay: UV-induced mtDNA common deletion (Cdel) in fibroblasts, PCR; assay type: cell-based; details: for reduction in Cdel incidence compared to the irradiated control group: UV-irradiated NHDF; for Nest PCR - deleted mtDNA, % Irradiated control / Nest PCR - deleted mtDNA, Relative Intensity / PCR on mtDNA (262 bp) long fragment, % Irradiated control / PCR on mtDNA (262 bp) long fragment, Relative Intensity: irradiated conditions UVA 4 J/cm^2
Method: (§1) The normal human dermal fibroblasts (NHDF) were incubated for 16 days, with ultraviolet light exposure three times a day. For the experimental group the cells were treated using medium containing 0.5, 3, 30 μM of ergothioneine.
(§2) Deletions in mtDNA were quantified using qPCR. The 522 bp fragment represents the amount of mtDNA with deletions, whereas the 262 bp fragment reflects the quantity of intact mtDNA, Relative intensity (AU) is typically used to describe the intensity of the fluorescent signal, and its magnitude is proportional to the number of fragments measured. And cell activity was analyzed using WST-8.
FIG. 2 depicts the effect of compound ergothioneine on the UV-induced mtDNA common deletion (Cdel) in fibroblasts—migration of PCR products (262 bp fragment=total mtDNA without Cdel; 522 bp fragment=mtDNA with Cdel) on 1.5% agarose gel.

[2] = tested on: normal human dermal fibroblasts (NHDF); assay: Cell viability (WST-8) of UVA-irradiated fibroblasts; assay type: cell-based; details: light or radiation study, irradiated conditions UVA 4 J/cm^2, read-out: Viability (WST-8), % Irradiated control
Method: as §1, §2

[3] = animals and humans, even at high doses; cited from earlier work

In the case of `C[N+](C)(C)[C@@H](Cc1c[nH]c(=S)[nH]1)C(=O)[O-]` [Ergothioneine, ergothioneine], the “reduction in Cdel incidence compared to the irradiated control group” value (“reduction in Cdel incidence” for short) ([1]; 0.5 μM) is reported as 56%, the “Nest PCR - deleted mtDNA, % Irradiated control” value (from here on “Nest PCR … % Irradiated control”) ([1]; 0.5 μM) is reported as 56% and the “Nest PCR - deleted mtDNA, Relative Intensity” value (from here on “Nest PCR … Relative Intensity”) ([1]; 0.5 μM) is reported as 45153 AU. For the same compound, the “PCR on mtDNA (262 bp) long fragment, % Irradiated control” value (“PCR on mtDNA … % Irradiated control” below) ([1]; 0.5 μM) was 120%, the “PCR on mtDNA (262 bp) long fragment, Relative Intensity” value (shortened to “PCR on mtDNA … Relative Intensity”) ([1]; 0.5 μM) was 663197 AU and the “reduction in Cdel incidence” value ([1]; 3 μM) was 67%. For the same compound, the “Nest PCR … % Irradiated control” value ([1]; 3 μM) was 33%, the “Nest PCR … Relative Intensity” value ([1]; 3 μM) was 26636 AU and the “PCR on mtDNA … % Irradiated control” value ([1]; 3 μM) was 110%. The “PCR on mtDNA … Relative Intensity” value ([1]; 3 μM) was 606349 AU, the “reduction in Cdel incidence” value ([1]; 30 μM) was 75% and the “Nest PCR … % Irradiated control” value ([1]; 30 μM) was 25%. The “Nest PCR … Relative Intensity” value ([1]; 30 μM) was 20645 AU, the “PCR on mtDNA … % Irradiated control” value ([1]; 30 μM) was 118% and the “PCR on mtDNA … Relative Intensity” value ([1]; 30 μM) was 652512 AU. The viability at 0.5 µM ([2]; 0.5 μM) was 100%, the viability at 3 µM ([2]; 3 μM) was 96% and the viability at 30 µM ([2]; 30 μM) was 96%. For the same compound, the “toxicity or adverse effects associated with administration” value [3] was “no toxicity or adverse effects”.
